In US20240374573A1, “IMIDAZOLE CONTAINING COMPOUNDS, DERIVATIVES THEREFORE, AND USES THEREOF” (AglaeaPharma Inc., priority 2023, published 2024):

What follows are compounds tested against T1, α2AAR (α2A-adrenergic receptor) (Homo sapiens, UniProt P08913) (assay: α2AAR FLIPR assay (agonist activity)). Settings: FLIPR, α2AAR cell line hosted in HEK293 cells; read-out: α2A agonist activity (EC50).
T1 construct: expressed in transfected cells; host or cells: HEK293
T1 sequence (P08913 1-465): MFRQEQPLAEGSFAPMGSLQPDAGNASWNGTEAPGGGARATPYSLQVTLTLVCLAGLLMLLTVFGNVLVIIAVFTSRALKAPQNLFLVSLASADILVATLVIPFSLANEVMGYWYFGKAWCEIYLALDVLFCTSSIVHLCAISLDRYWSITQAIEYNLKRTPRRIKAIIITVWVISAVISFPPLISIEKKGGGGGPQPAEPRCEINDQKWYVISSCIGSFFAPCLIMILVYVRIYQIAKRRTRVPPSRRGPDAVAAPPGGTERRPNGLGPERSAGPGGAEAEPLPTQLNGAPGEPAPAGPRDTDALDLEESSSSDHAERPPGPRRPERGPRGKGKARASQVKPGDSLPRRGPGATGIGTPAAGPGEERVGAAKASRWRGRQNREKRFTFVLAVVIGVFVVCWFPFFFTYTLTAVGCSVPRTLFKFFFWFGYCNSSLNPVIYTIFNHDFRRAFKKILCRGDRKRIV
Assay type: cell-based
Experimental: This experimental protocol involved cell seeding and a FLIPR assay using the α2AAR (α2A-adrenergic receptor) cell line hosted in HEK293 cells. […] On Day 1, the cell seeding process started with the removal of the culture medium, followed by rinsing the cells with DPBS (21-031-CVC, Corning). […] The cells were detached, resuspended in growth media, and centrifuged at room temperature at 1000 rpm for 5 minutes. After discarding the supernatant, the cell pellet was resuspended in growth media to a concentration of 10× 10^5 cells per mL. This suspension was added to 384-well plates (19-Jul-38, Greiner) at 20 μL per well and incubated overnight at 37° C. in 5% CO2.
A 250 mM Probenecid solution was prepared in this buffer. The Fluo-4 Direct™ Loading Buffer was made by dissolving Fluo-4 Direct™ crystals (F10471, Invitrogen) in the FLIPR Assay Buffer and adding Probenecid. The buffer was then vortexed and allowed to stand for over 5 minutes, shielded from light. For the FLIPR procedure, testing compounds for agonist activite were serially diluted and transferred to a 384-well compound plate (25-Jan-39, Greiner). The cell plate was then treated with 2× Fluo-4 Direct™ loading buffer and incubated for 50 minutes at 37° C. in a 5% CO2 atmosphere, followed by 10 minutes at room temperature. Subsequently, the FLIPR assay buffer was added to the compound plate, which is then centrifuged.
The cell plate was analyzed in the FLIPR Tetra+ System for fluorescence signals. For the agonist test, reference compounds were added to the cell plates, and fluorescence was measured. The “Max-Min” calculation began from Read 1 to the maximum allowed. The data were analyzed using Prism software to calculate activation percentage for agonists and inhibition percentage for antagonists. The results were then fitted using specific models to determine EC50 for agonists.
The experimental protocol utilized various reagents and apparatus, including Penicillin/Streptomycin (100×) (SV30010, Hyclone), Poly-L-lysine hydrobromide (P1399, Sigma), and different types of 384-well plates such as the 384-Well PP 2.0 Microplate (PP-0200, LABCYTE) and 384 well Low Dead Volume Microplate (LP-0200, LABCYTE). The use of specific reference compounds like UK14304 was also integral to the assay.

Row | Compound | EC50 [nM]
1 | Cc1cccc(C(c2cccc(C(=O)NC3CCOCC3)c2)c2c[nH]cn2)c1C (racemic) [compound 121] | < 10
2 | Cc1cccc(C(Cc2ccc(NS(C)(=O)=O)cc2)c2c[nH]cn2)c1C (racemic) [compound 136] | < 10
3 | Cc1cccc(C(Cc2ccc(C(N)=O)c(F)c2)c2c[nH]cn2)c1C (racemic) [compound 156] | < 10
4 | Cc1cccc(C(c2cccc(NC(=O)CC#N)c2)c2c[nH]cn2)c1C (single isomer, unassigned) [10-B] | 10 to 50
5 | CNC(=O)NCCOCCOCC(c1c[nH]cn1)c1cccc(C)c1C (single isomer, unassigned) [17-B] | 10 to 50
6 | Cc1cccc(C(c2cccc(NC(=O)CCC#N)c2)c2c[nH]cn2)c1C (single isomer, unassigned) [43-B] | 10 to 50
7 | Cc1cccc(C(c2cccc(NS(C)(=O)=O)c2)c2c[nH]cn2)c1C (single isomer, unassigned) [44-B] | 10 to 50
8 | Cc1cccc(C(c2cccc(C(=O)NCC3CCOCC3)c2)c2c[nH]cn2)c1C (single isomer, unassigned) [98-B] | < 10
9 | Cc1cccc(C(Cc2cccc(NS(=O)(=O)CC3CCOCC3)c2)c2c[nH]cn2)c1C (single isomer, unassigned) [112-B] | 10 to 50
10 | Cc1cccc(C(Cc2ccc(C(C)C(=O)O)cc2)c2c[nH]cn2)c1C (single isomer, unassigned) [174-B] | 10 to 50
11 | COCCOCCNC(=O)c1cccc(C(c2c[nH]cn2)c2cccc(C)c2C)c1 (stereo not drawn) [compound 3] | 10 to 50
12 | Cc1cccc(C(c2cccc(OCCNC(=O)Nc3ccncn3)c2)c2c[nH]cn2)c1C (stereo not drawn) [compound 4] | 50 to 250
13 | Cc1cccc(C(c2cccc(C(N)=O)c2)c2c[nH]cn2)c1C (stereo not drawn) [compound 5] | 10 to 50
14 | CONC(=O)c1cccc(C(c2c[nH]cn2)c2cccc(O)c2C)c1 (stereo not drawn) [compound 7] | 250 to 1000
15 | CONC(=O)c1cccc(C(c2c[nH]cn2)c2cccc(C)c2C)c1O (stereo not drawn) [compound 8] | 10 to 50
16 | Cc1cccc(C(c2c[nH]cn2)c2cccc(C(N)=O)c2O)c1C (stereo not drawn) [compound 9] | 10 to 50
17 | Cc1cccc(C(c2cccc(NC(=O)CC#N)c2)c2c[nH]cn2)c1C (stereo not drawn) [compound 10] | 10 to 50
18 | Cc1cccc(C(c2cccc(C(=O)O)c2)c2c[nH]cn2)c1C (stereo not drawn) [compound 11] | 250 to 1000
19 | Cc1cccc(C(c2ccc(C(=O)O)cc2)c2c[nH]cn2)c1C (stereo not drawn) [compound 12] | > 1000
20 | Cc1cccc(C(c2ccc(O)cc2)c2c[nH]cn2)c1C (stereo not drawn) [compound 13] | > 1000
21 | CNC(=O)Nc1ccc(C(c2c[nH]cn2)c2cccc(C)c2C)cc1 (stereo not drawn) [compound 14] | > 1000
22 | COCCOCCOCCOCCOCCOc1ccc(C(c2c[nH]cn2)c2cccc(C)c2C)cc1 (stereo not drawn) [compound 15] | > 1000
23 | COCCOCCOCCOCC(c1c[nH]cn1)c1cccc(C)c1C (stereo not drawn) [compound 16] | 10 to 50
24 | CNC(=O)NCCOCCOCC(c1c[nH]cn1)c1cccc(C)c1C (stereo not drawn) [compound 17] | 10 to 50

Row | Compound | EC50 [nM]
25 | Cc1cccc(C(COCCOCCNS(C)(=O)=O)c2c[nH]cn2)c1C (stereo not drawn) [compound 18] | 10 to 50
26 | Cc1cccc(C(COCCOCCN)c2c[nH]cn2)c1C (stereo not drawn) [compound 19] | 50 to 250
27 | COCCOCCOCCOCCOCCOCCCC(c1c[nH]cn1)c1cccc(C)c1C (stereo not drawn) [compound 21] | > 1000
28 | Cc1cccc(C(c2cccc(C(=O)N3CCOCC3)c2)c2c[nH]cn2)c1C (stereo not drawn) [compound 23] | 250 to 1000
29 | CC(=O)NCCOCCOCC(c1c[nH]cn1)c1cccc(C)c1C (stereo not drawn) [compound 25] | 50 to 250
30 | Cc1cccc(C(c2cccc(C(=O)N(C)C)c2)c2c[nH]cn2)c1C (stereo not drawn) [compound 33] | 50 to 250
31 | Cc1cccc(C(c2c[nH]cn2)c2ccccc2C(N)=O)c1C (stereo not drawn) [compound 34] | > 1000
32 | CONC(=O)c1cccc(C(c2c[nH]cn2)c2cccc(Cl)c2Cl)c1 (stereo not drawn) [compound 35] | 50 to 250
33 | CONC(=O)c1cccc(C(c2c[nH]cn2)c2cccc(Cl)c2C)c1 (stereo not drawn) [compound 36] | 50 to 250
34 | COCCOCCOCC(c1c[nH]cn1)c1cccc(C)c1C (stereo not drawn) [compound 37] | 50 to 250
35 | Cc1cccc(C(c2c[nH]cn2)c2cccc(C(N)=O)c2Cl)c1C (stereo not drawn) [compound 38] | 10 to 50
36 | Cc1cccc(C(c2cccc(N)c2)c2c[nH]cn2)c1C (stereo not drawn) [compound 39] | 50 to 250
37 | CONC(=O)c1cccc(C(c2c[nH]cn2)c2cccc(C(F)(F)F)c2C)c1 (stereo not drawn) [compound 52] | 250 to 1000
38 | Cc1cccc(C(c2cccc(Nc3ccccn3)c2)c2c[nH]cn2)c1C (stereo not drawn) [compound 59] | 50 to 250
39 | Cc1cccc(C(c2c[nH]cn2)c2cccc(S(N)(=O)=O)c2O)c1C (stereo not drawn) [compound 150] | 50 to 250
40 | Cc1cccc(C(CN2CCC(NS(C)(=O)=O)CC2)c2c[nH]cn2)c1C (stereo not drawn) [compound 168] | 50 to 250
41 | Cc1cccc(C(c2cccc(NC(=O)C3C4CC5CC(C4)CC3C5)c2)c2c[nH]cn2)c1C (stereo not drawn) [compound 170] | 50 to 250
42 | Cc1cccc(C(c2cccc(NS(=O)(=O)C[C@@H]3CCCO3)c2)c2c[nH]cn2)c1C (stereo partly drawn) [compound 172] | 10 to 50
43 | Cc1cccc(C(c2cccc(NS(=O)(=O)CC3CCCCO3)c2)c2c[nH]cn2)c1C (stereo not drawn) [compound 173] | 10 to 50
44 | Cc1cccc(C(c2cccc(NC(=O)CC3CCCCC3)c2)c2c[nH]cn2)c1C (stereo not drawn) [compound 178] | 10 to 50
45 | Cc1cccc(C(c2cccc(NC3(C)COC3)c2)c2c[nH]cn2)c1C (stereo not drawn) [compound 185] | 50 to 250
46 | Cc1cscc1C(c1cccc(NS(C)(=O)=O)c1)c1c[nH]cn1 (stereo not drawn) [compound 403] | 50 to 250
47 | CONC(=O)c1ccc2ccccc2c1Nc1ccncc1 [compound 601] | 50 to 250
48 | COCCOCCOCCOCCOCCc1ccc2ccccc2c1Nc1ccncc1 [compound 602] | 50 to 250

Same assay, conditions: α2A agonist activity (EC50, nM)

Row | Compound | EC50 [nM]
49 | CNC(=O)c1cccc(C(c2c[nH]cn2)c2cccc(C)c2C)c1 (stereo not drawn) [compound 6] | 10 to 50
50 | CNCCOCCOCC(c1c[nH]cn1)c1cccc(C)c1C (stereo not drawn) [compound 24] | 250 to 1000

These compounds were tested against T2, α2AAR (Homo sapiens, UniProt P08913) (assay: α2AAR binding assay ([3H]-RX 821002 radioligand)). Settings: [3H]-RX 821002 0.5 nM, HEK293 membranes; read-out: α2A affinity (Ki).
T2 construct: host or cells: HEK293 (membranes)
T2 sequence (P08913 1-465): T1 sequence (P08913 1-465)
Experimental: The α2AR Binding Assay was conducted using a stable HEK293 cell line, specifically constructed by WuXi AppTec for targeting α2AAR. […] Both the assay and wash buffers consist of 50 mM Tris-HCl at a pH of 7.4 (Tris base, Sigma, T1503-1 KG).
The procedure initiated with the preparation of test compounds and a reference compound, yohimbine (Sigma, Y3125), through an 8-point 4-fold serial dilution, transferring 1 μL of each to the assay plate. […] After scaling, the plates were agitated at room temperature for one hour. Subsequently, the Unifilter-96 GF/C filter plates were pre-soaked with 0.3% PEI (Sigma, P3143) for at least half an hour. The reaction mixtures were then filtered and washed four times with cold wash buffer using a Perkin Elmer Cell harvester. Post-filtration, the plates were dried at 50° C. for one hour. […] The top of the plates was then sealed with TopSeal-A sealing film. The trapped 3H was quantified using a Perkin Elmer MicroBeta2 Reader. […] Finally, the data were analyzed with Prism 5.0 software, employing the “log (inhibitor) vs. response-Variable slope” model for data fitting. This comprehensive process ensured precise assessment of the binding affinity of compounds to the α2AAR.

Row | Compound | Ki [µM]
51 | Cc1cccc(C(c2cccc(C(=O)NC3CCOCC3)c2)c2c[nH]cn2)c1C (racemic) [compound 121] | 0.01 to 0.05
52 | Cc1cccc(C(Cc2ccc(NS(C)(=O)=O)cc2)c2c[nH]cn2)c1C (racemic) [compound 136] | < 0.01
53 | Cc1cccc(C(Cc2ccc(C(N)=O)c(F)c2)c2c[nH]cn2)c1C (racemic) [compound 156] | < 0.01
54 | Cc1cccc(C(c2cccc(NC(=O)CC#N)c2)c2c[nH]cn2)c1C (single isomer, unassigned) [10-B] | 0.01 to 0.05
55 | CNC(=O)NCCOCCOCC(c1c[nH]cn1)c1cccc(C)c1C (single isomer, unassigned) [17-B] | 0.01 to 0.05
56 | Cc1cccc(C(c2cccc(NC(=O)CCC#N)c2)c2c[nH]cn2)c1C (single isomer, unassigned) [43-B] | 0.01 to 0.05
57 | Cc1cccc(C(c2cccc(NS(C)(=O)=O)c2)c2c[nH]cn2)c1C (single isomer, unassigned) [44-B] | < 0.01
58 | Cc1cccc(C(c2cccc(C(=O)NCC3CCOCC3)c2)c2c[nH]cn2)c1C (single isomer, unassigned) [98-B] | < 0.01
59 | Cc1cccc(C(Cc2cccc(NS(=O)(=O)CC3CCOCC3)c2)c2c[nH]cn2)c1C (single isomer, unassigned) [112-B] | < 0.01
60 | Cc1cccc(C(Cc2ccc(C(C)C(=O)O)cc2)c2c[nH]cn2)c1C (single isomer, unassigned) [174-B] | 0.01 to 0.05
